From article PMC11007962, “First-in-human study of GFH018, a small molecule inhibitor of transforming growth factor-β receptor I inhibitor, in patients with advanced solid tumors” (BMC Cancer, 2024)
Like-named read-outs stand apart in the source and are kept apart here.

Tested on: patients with advanced solid tumors
[1] = 85 mg BID 14d-on/14d-off (N = 12)

Cc1cccc(-c2nn3c(c2-c2ccc4ncnn4c2/C=C/C(N)=O)CCC3)n1 [GFH018]
1 (8.3%) n (%): TEAE: AST increased, maximal CTCAE grade G2 [1] | TEAE: Blood albumin decreased [1] | TEAE: GGT increased, maximal CTCAE grade G2 [1] | TEAE: Platelet count decreased [1] | TEAE: Sinus tachycardia [1] | TEAE: Urine protein present [1]
2 (33.3%) n (%): TEAE: Abdominal pain (85 mg BID 7d-on/7d-off (N = 6)) | TEAE: Anemia (85 mg BID 7d-on/7d-off (N = 6)) | TEAE: Decreased appetite (85 mg BID 7d-on/7d-off (N = 6)) | TEAE: Decreased appetite, any grade (Table S3) (85 mg BID 7d-on/7d-off (N = 6)) | TEAE: Sinus tachycardia (85 mg BID 7d-on/7d-off (N = 6)) | TRAE: Lymphocyte count decreased (85 mg BID 7d-on/7d-off (N = 6))
0 n (%): TEAE: ALT increased, any grade (Table S3) (85 mg BID 7d-on/7d-off (N = 6)) | TEAE: ALT increased, maximal CTCAE grade G1 (85 mg BID 7d-on/7d-off (N = 6)) | TEAE: ALT increased, maximal CTCAE grade G2 (85 mg BID 7d-on/7d-off (N = 6)) | TEAE: ALT increased, maximal CTCAE grade G3 (85 mg BID 7d-on/7d-off (N = 6)) | TEAE: ALT increased, maximal CTCAE grade G4 (85 mg BID 7d-on/7d-off (N = 6)) | TEAE: ALT increased, maximal CTCAE grade G5 (85 mg BID 7d-on/7d-off (N = 6)) | TEAE: AST increased, maximal CTCAE grade G2 (85 mg BID 7d-on/7d-off (N = 6)) | TEAE: AST increased, maximal CTCAE grade G3 (85 mg BID 7d-on/7d-off (N = 6)) | TEAE: AST increased, maximal CTCAE grade G4 (85 mg BID 7d-on/7d-off (N = 6)) | TEAE: AST increased, maximal CTCAE grade G5 (85 mg BID 7d-on/7d-off (N = 6)) | TEAE: Blood bilirubin increased (85 mg BID 7d-on/7d-off (N = 6)) | TEAE: C-reactive protein increased (85 mg BID 7d-on/7d-off (N = 6)) | TEAE: C-reactive protein increased, any grade (Table S3) (85 mg BID 7d-on/7d-off (N = 6)) | TEAE: C-reactive protein increased, maximal CTCAE grade G1 (85 mg BID 7d-on/7d-off (N = 6)) | TEAE: C-reactive protein increased, maximal CTCAE grade G2 (85 mg BID 7d-on/7d-off (N = 6)) | TEAE: C-reactive protein increased, maximal CTCAE grade G3 (85 mg BID 7d-on/7d-off (N = 6)) | TEAE: C-reactive protein increased, maximal CTCAE grade G4 (85 mg BID 7d-on/7d-off (N = 6)) | TEAE: C-reactive protein increased, maximal CTCAE grade G5 (85 mg BID 7d-on/7d-off (N = 6)) | TEAE: Constipation (85 mg BID 7d-on/7d-off (N = 6)) | TEAE: Decreased appetite, maximal CTCAE grade G3 (85 mg BID 7d-on/7d-off (N = 6)) | TEAE: Decreased appetite, maximal CTCAE grade G4 (85 mg BID 7d-on/7d-off (N = 6)) | TEAE: Decreased appetite, maximal CTCAE grade G5 (85 mg BID 7d-on/7d-off (N = 6)) | TEAE: GGT increased (85 mg BID 7d-on/7d-off (N = 6)) | TEAE: GGT increased, any grade (Table S3) (85 mg BID 7d-on/7d-off (N = 6)) | TEAE: GGT increased, maximal CTCAE grade G1 (85 mg BID 7d-on/7d-off (N = 6)) | TEAE: GGT increased, maximal CTCAE grade G2 (85 mg BID 7d-on/7d-off (N = 6)) | TEAE: GGT increased, maximal CTCAE grade G3 (85 mg BID 7d-on/7d-off (N = 6)) | TEAE: GGT increased, maximal CTCAE grade G4 (85 mg BID 7d-on/7d-off (N = 6)) | TEAE: GGT increased, maximal CTCAE grade G5 (85 mg BID 7d-on/7d-off (N = 6)) | TEAE: LDH increased (85 mg BID 7d-on/7d-off (N = 6)) | TEAE: LDH increased, any grade (Table S3) (85 mg BID 7d-on/7d-off (N = 6)) | TEAE: LDH increased, maximal CTCAE grade G1 (85 mg BID 7d-on/7d-off (N = 6)) | TEAE: LDH increased, maximal CTCAE grade G2 (85 mg BID 7d-on/7d-off (N = 6)) | TEAE: LDH increased, maximal CTCAE grade G3 (85 mg BID 7d-on/7d-off (N = 6)) | TEAE: LDH increased, maximal CTCAE grade G4 (85 mg BID 7d-on/7d-off (N = 6)) | TEAE: LDH increased, maximal CTCAE grade G5 (85 mg BID 7d-on/7d-off (N = 6)) | TEAE: White blood cells urine positive (85 mg BID 7d-on/7d-off (N = 6)) | TEAE: White blood cells urine positive, any grade (Table S3) (85 mg BID 7d-on/7d-off (N = 6)) | TEAE: White blood cells urine positive, maximal CTCAE grade G1 (85 mg BID 7d-on/7d-off (N = 6)) | TEAE: White blood cells urine positive, maximal CTCAE grade G2 (85 mg BID 7d-on/7d-off (N = 6)) | TEAE: White blood cells urine positive, maximal CTCAE grade G3 (85 mg BID 7d-on/7d-off (N = 6)) | TEAE: White blood cells urine positive, maximal CTCAE grade G4 (85 mg BID 7d-on/7d-off (N = 6)) | TEAE: White blood cells urine positive, maximal CTCAE grade G5 (85 mg BID 7d-on/7d-off (N = 6)) | TRAE: ALT increased (85 mg BID 7d-on/7d-off (N = 6)) | TRAE: AST increased (85 mg BID 7d-on/7d-off (N = 6)) | TRAE: GGT increased (85 mg BID 7d-on/7d-off (N = 6)) | TRAE: LDH increased (85 mg BID 7d-on/7d-off (N = 6)) | TRAE: Proteinuria (85 mg BID 7d-on/7d-off (N = 6)) | Treatment-emergent Proteinuria (grouped PTs), G2 (85 mg BID 7d-on/7d-off (N = 6)) | Treatment-emergent Proteinuria (grouped PTs), G3 (85 mg BID 7d-on/7d-off (N = 6)) | TEAE: ALT increased, maximal CTCAE grade G2 [1] | TEAE: ALT increased, maximal CTCAE grade G3 [1] | TEAE: ALT increased, maximal CTCAE grade G4 [1] | TEAE: ALT increased, maximal CTCAE grade G5 [1] | TEAE: AST increased, maximal CTCAE grade G3 [1] | TEAE: AST increased, maximal CTCAE grade G4 [1] | TEAE: AST increased, maximal CTCAE grade G5 [1] | TEAE: Blood bilirubin increased [1] | TEAE: C-reactive protein increased, maximal CTCAE grade G2 [1] | TEAE: C-reactive protein increased, maximal CTCAE grade G3 [1] | TEAE: C-reactive protein increased, maximal CTCAE grade G4 [1] | TEAE: C-reactive protein increased, maximal CTCAE grade G5 [1] | TEAE: Decreased appetite [1] | TEAE: Decreased appetite, any grade (Table S3) [1] | TEAE: Decreased appetite, maximal CTCAE grade G1 [1] | TEAE: Decreased appetite, maximal CTCAE grade G2 [1] | TEAE: Decreased appetite, maximal CTCAE grade G3 [1] | TEAE: Decreased appetite, maximal CTCAE grade G4 [1] | TEAE: Decreased appetite, maximal CTCAE grade G5 [1] | TEAE: GGT increased, maximal CTCAE grade G3 [1] | TEAE: GGT increased, maximal CTCAE grade G4 [1] | TEAE: GGT increased, maximal CTCAE grade G5 [1] | TEAE: LDH increased, maximal CTCAE grade G2 [1] | TEAE: LDH increased, maximal CTCAE grade G3 [1] | TEAE: LDH increased, maximal CTCAE grade G4 [1] | TEAE: LDH increased, maximal CTCAE grade G5 [1]
3 (50.0%) n (%): TEAE: Lymphocyte count decreased (85 mg BID 7d-on/7d-off (N = 6))
4 (33.3%) n (%): TEAE: AST increased [1] | TEAE: AST increased, any grade (Table S3) [1] | TEAE: Abdominal pain [1] | TEAE: GGT increased [1] | TEAE: GGT increased, any grade (Table S3) [1] | TEAE: Lymphocyte count decreased [1]
2 (33.3) n (%): Treatment-emergent Proteinuria (grouped PTs), G1 (85 mg BID 7d-on/7d-off (N = 6)) | Treatment-emergent Proteinuria (grouped PTs: proteinuria and urine protein present), any grade (85 mg BID 7d-on/7d-off (N = 6))
11 (91.7%) n (%): At least one TRAE [1]
3 (25.0%) n (%): TEAE: ALT increased [1] | TEAE: ALT increased, any grade (Table S3) [1] | TEAE: ALT increased, maximal CTCAE grade G1 [1] | TEAE: AST increased, maximal CTCAE grade G1 [1] | TEAE: Anemia [1] | TEAE: Bilirubin conjugated increased [1] | TEAE: C-reactive protein increased [1] | TEAE: C-reactive protein increased, any grade (Table S3) [1] | TEAE: C-reactive protein increased, maximal CTCAE grade G1 [1] | TEAE: GGT increased, maximal CTCAE grade G1 [1] | TEAE: Hypoalbuminemia [1]
12 (100%) n (%): At least one TEAE [1] | At least one TEAE (Table S3) [1]
2 (16.7%) n (%): TEAE: ALP increased [1] | TEAE: Abdominal distention [1] | TEAE: Asthenia [1] | TEAE: Constipation [1] | TEAE: LDH increased [1] | TEAE: LDH increased, any grade (Table S3) [1] | TEAE: LDH increased, maximal CTCAE grade G1 [1] | TEAE: Proteinuria [1]
1 (16.7%) n (%): TEAE: AST increased (85 mg BID 7d-on/7d-off (N = 6)) | TEAE: AST increased, any grade (Table S3) (85 mg BID 7d-on/7d-off (N = 6)) | TEAE: AST increased, maximal CTCAE grade G1 (85 mg BID 7d-on/7d-off (N = 6)) | TEAE: Abdominal distention (85 mg BID 7d-on/7d-off (N = 6)) | TEAE: Asthenia (85 mg BID 7d-on/7d-off (N = 6)) | TEAE: Bilirubin conjugated increased (85 mg BID 7d-on/7d-off (N = 6)) | TEAE: Blood albumin decreased (85 mg BID 7d-on/7d-off (N = 6)) | TEAE: Decreased appetite, maximal CTCAE grade G1 (85 mg BID 7d-on/7d-off (N = 6)) | TEAE: Decreased appetite, maximal CTCAE grade G2 (85 mg BID 7d-on/7d-off (N = 6)) | TEAE: Hypoalbuminemia (85 mg BID 7d-on/7d-off (N = 6)) | TEAE: Platelet count decreased (85 mg BID 7d-on/7d-off (N = 6)) | TEAE: Proteinuria (85 mg BID 7d-on/7d-off (N = 6)) | TEAE: Urine protein present (85 mg BID 7d-on/7d-off (N = 6)) | TEAE: White blood cell count decreased (85 mg BID 7d-on/7d-off (N = 6)) | TRAE: ALP increased (85 mg BID 7d-on/7d-off (N = 6)) | TRAE: Anemia (85 mg BID 7d-on/7d-off (N = 6)) | TRAE: Protein urine present (85 mg BID 7d-on/7d-off (N = 6))
